Measured values reported in article PMC6538953, “Metal Ions Activate the Human Taste Receptor TAS2R7” (Chemical Senses, 2019).
Numbering of substitutions follows the chain as printed. Read-outs that look alike come from different tables or passages of the source.

Tests used:
[1] = system: mock-transfected HEK293 cells (Gα16-gust44 only); assay: Calcium mobilization assay, mock-transfected cells (Gα16-gust44 only); type: cell-based, human; conditions: any concentration tested (cromolyn 10 mM)
Protocol: (§1) Human embryonic kidney 293 (PEAKrapid, ATCC # CRL-2828) cells were cultured in Opti-MEM medium with 4% fetal bovine serum. One day before transfection, cells were seeded on a 96-well plate at a density of 25 000 per well. Cells were then transiently transfected with a TAS2R construct (0.1 µg/well) along with a G protein Gα16-gust44 (0.1 µg/well) construct by Lipofectamine 2000 (0.5 µl/well). For controls, only Gα16-gust44 was used (mock transfection). Twenty-four hours after transfection, cells were washed with HBSS including 10 mM HEPES and loaded with Fluo-4 in the dark for 1 h. After incubation, cells were washed 2 times with HBSS (including 10 mM HEPES), incubated in the dark for another 30 min, and then washed with assay solution once more before running the assay using a FlexStation III reader. Relative fluorescence units (excitation at 494 nm, emission at 516 nm, and auto cutoff at 515 nm) were read every 2 s for 2 min. Calcium mobilization traces were recorded.
Calcium mobilization traces were raw data obtained from single wells. Changes in fluorescence (ΔF) were calculated as the peak fluorescence minus baseline fluorescence ([Lei et al. 2015]). The calcium mobilization was quantified as the percentage of change (ΔF) relative to baseline (F). […] Calcium mobilization traces and bar graphs along with dose-dependent plots were all generated by GraphPad Prism 7. […]

human TAS2R7 = molecular target: T1, human TAS2R7 (Homo sapiens, UniProt Q9NYW3); assay: Calcium mobilization assay, HEK293 cells transfected with TAS2R7 and Gα16-gust44; type: cell-based
T1 construct: first 45 residues of rat somatostatin receptor 3 (signal peptide) (N); expressed in transfected cells; host or cells: HEK293 (PEAKrapid, ATCC CRL-2828)
T1 sequence (Q9NYW3 1-318): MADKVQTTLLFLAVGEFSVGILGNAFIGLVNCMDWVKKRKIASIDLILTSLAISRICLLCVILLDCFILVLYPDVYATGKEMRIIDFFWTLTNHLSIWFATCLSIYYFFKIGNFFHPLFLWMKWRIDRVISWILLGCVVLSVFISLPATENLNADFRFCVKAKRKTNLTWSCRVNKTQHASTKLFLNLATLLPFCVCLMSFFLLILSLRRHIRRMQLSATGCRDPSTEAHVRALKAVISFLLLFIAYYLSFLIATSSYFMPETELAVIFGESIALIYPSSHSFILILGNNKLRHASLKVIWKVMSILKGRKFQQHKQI
Description: (§2) The coding sequences of human TAS2Rs were amplified from human genomic DNA, then subcloned into pcDNA3.1(+) vector, with the herpes simplex virus glycoprotein D epitope (HSV) at the C-terminal and a signal peptide consisting of the first 45 amino acid residues of the rat somatostatin receptor 3 at the N-terminal, essentially as described previously ([Bufe et al. 2002]). Point mutations in human TAS2R7 (NCBI Reference Sequence: NP_076408.1) were constructed by site-directed mutagenesis. All the constructs were confirmed by Sanger sequencing.
All tested compounds were purchased from Sigma–Aldrich, with the exception of diphenidol hydrochloride (Reagent World) and L-praziquantel (manufactured by Shaoxing Pharmaceutical Co. Ltd.). All the metal ions were dissolved in the assay solution (130 mM NaCl, 5 mM KCl, 2 mM CaCl2, and 10 mM glucose; pH 7.4) unless specified otherwise, and the bitter compounds (diphenidol, quinine, and chlorphenamine) were dissolved first in dimethyl sulfoxide (DMSO) as stock solution and then diluted with the assay solution; the final DMSO concentration was below 0.5%, with the exception of cromolyn, which is dissolved in the assay solution directly. For our initial screening (Table 1), Hanks’ balanced salt solution (HBSS, ThermoFisher, catalog no. 14025134) supplemented with 10 mM hydroxyethyl piperazineethanesulfonic acid (HEPES) were used as the assay buffer.
as §1
Calcium mobilization traces were raw data obtained from single wells. Changes in fluorescence (ΔF) were calculated as the peak fluorescence minus baseline fluorescence ([Lei et al. 2015]). The calcium mobilization was quantified as the percentage of change (ΔF) relative to baseline (F). […] Calcium mobilization traces and bar graphs along with dose-dependent plots were all generated by GraphPad Prism 7. Analysis of variance with Dunnett’s multiple comparisons test was used for statistical analysis. *P < 0.05.
To determine whether a TAS2R responds to metal ions, we expressed all 25 human bitter receptors individually in HEK293 cells (PEAKrapid) by transient transfection of a TAS2R along with a coupling chimeric G protein, Gα16-gust44. All TAS2Rs were cloned from human genomic DNA. Activation of human TAS2Rs was monitored by the calcium mobilization assay ([Lei et al. 2015]). We tested these receptors individually for their responses toward metal ions: ZnSO4 (20 mM), CuSO4 (20 mM), and MgCl2 (20 mM) (Table 1, Figure 1A). […] To determine the breadth of tuning of TAS2R7 toward metal ions, we also tested MnCl2 (20 mM), Al2(SO4)3 ([…]), and CaCl2 (20 mM) (Figure 1B).

[2] = molecular target: T2, human TAS2R7 E271^7.39 to leucine mutant (Homo sapiens, UniProt Q9NYW3, E271L); assay: Calcium mobilization assay, TAS2R7 mutant E271L; type: cell-based; conditions: 20 mM metal ions except 0.16 mM Al2(SO4)3; cromolyn 10 mM; Figure 6C
T2 construct: signal peptide: first 45 amino acid residues of rat somatostatin receptor 3 (N); expressed in transfected cells; host or cells: HEK293 PEAKrapid (ATCC CRL-2828), transient, co-transfected with Gα16-gust44
T2 sequence (Q9NYW3 1-318 E271L): T1 sequence (Q9NYW3 1-318) with E271L
Description: as §2
Human embryonic kidney 293 (PEAKrapid, ATCC # CRL-2828) cells were cultured in Opti-MEM medium with 4% fetal bovine serum. […] After incubation, cells were washed 2 times with HBSS (including 10 mM HEPES), incubated in the dark for another 30 min, and then washed with assay solution once more before running the assay using a FlexStation III reader. Relative fluorescence units (excitation at 494 nm, emission at 516 nm, and auto cutoff at 515 nm) were read every 2 s for 2 min. Calcium mobilization traces were recorded.
Calcium mobilization traces were raw data obtained from single wells. Changes in fluorescence (ΔF) were calculated as the peak fluorescence minus baseline fluorescence ([Lei et al. 2015]). The calcium mobilization was quantified as the percentage of change (ΔF) relative to baseline (F). […]

In the case of `O=C(O)c1cc(=O)c2c(OCC(O)COc3cccc4oc(C(=O)O)cc(=O)c34)cccc2o1` [cromolyn, reference compound], the “Response of mock-transfected cells” value [1] is reported as “not”, the “Response of TAS2R7-transfected cells at higher dose” value (human TAS2R7; 10 mM) is reported as “robust response” and the EC50 (human TAS2R7; Figure 4B, read-out: EC50, TAS2R7, dose-response analysis) is reported as 5.9 mM. The EC50 (human TAS2R7; assay solution containing calcium, Figures 3A, 4C, read-out: EC50, TAS2R7, in the presence of calcium) was 6.67 mM, the EC50 (human TAS2R7; assay solution containing no calcium, Figures 3A, 4C, read-out: EC50, TAS2R7, in the absence of calcium) was 5.22 mM and the “Maximal response of TAS2R7 in the absence versus presence of calcium” value (human TAS2R7; assay solution without calcium compared with calcium) was “smaller”. The “Compounds triggering detectable responses in cells transfected with TAS2R7” value (human TAS2R7; at the concentrations reported previously (Meyerhof et al. 2010), Figure 4A) was “none” and the “Response of E271 to leucine mutant receptor” value [2] was “slightly reduced responses”.
